Source: paper PMC10661773, “Cytotoxic pathways activated by multifunctional thiosemicarbazones targeting sigma-2 receptors in breast and lung carcinoma cells” (Pharmacological Reports, 2023)

Columns and labels:
MCF7 and A549 cell lines = assay: Cytotoxic activity across the two tumor cell lines (MTT); type: cell-based; conditions: Homo sapiens; MCF7 and A549, MTT 48 h; read-out: EC50 range in the two tumor cell lines
Protocol: Human MCF7 breast adenocarcinoma (#HTB-22) and human A549 carcinoma (#CCL-85) cell lines, non-tumor human breast (MCF10A, #CRL-10317) and lung (BEAS-2B, #CRL-9482) cells were obtained from American Type Culture Collection (ATCC, Bethesda, MD). MCF7 cells were cultured in DMEM medium (Gibco Thermo Scientific, Waltham, MA; #10,565,018), A549 in HAM’s F12 medium (Gibco Thermo Scientific; #11,765,054), and BEAS-2B in RPMI-1640 medium (Gibco Thermo Scientific; # 61,870,010), all supplemented with 10% v/v fetal bovine serum (FBS; Sigma, St. Louis, MO; #F4135) and 1% v/v penicillin–streptomycin (Sigma; #P4458). MCF10A cells were cultured in DMEM/F12 medium (Gibco Thermo Scientific; #31,331,028) supplemented with 5% v/v horse serum (Sigma; #H1270) and 1% v/v penicillin–streptomycin, 20 ng/mL epidermal growth factor (Sigma, #E4127), 10 µg/mL insulin (Sigma, #I3536), […] hydrocortisone (Sigma, #H0888), 100 ng/mL cholera toxin (Sigma, #C8052). Cells were kept in a humidified incubator at 37 °C with 5% CO2.
Cell growth was determined using the MTT assay at 48 h. On day 1, 25,000 cells/well were seeded into 96-well plates in a volume of 100 μL. […] Formazan crystals were solubilized using 100 μl of DMSO/EtOH (1:1) and absorbance values at 570 and 630 nm were determined on the microplate reader Victor 3 from PerkinElmer Life Sciences (Waltham, MA).

P-gp = biological target: T1, P-gp (Homo sapiens, UniProt P08183); assay: P-gp activity, Calcein-AM assay in MDCK-MDR1 cells; type: cell-based; conditions: read-out: P-gp Activity EC50 ± SEM
T1 construct: expressed in transfected cells; host or cells: MDCK-MDR1
T1 sequence (P08183 whole entry): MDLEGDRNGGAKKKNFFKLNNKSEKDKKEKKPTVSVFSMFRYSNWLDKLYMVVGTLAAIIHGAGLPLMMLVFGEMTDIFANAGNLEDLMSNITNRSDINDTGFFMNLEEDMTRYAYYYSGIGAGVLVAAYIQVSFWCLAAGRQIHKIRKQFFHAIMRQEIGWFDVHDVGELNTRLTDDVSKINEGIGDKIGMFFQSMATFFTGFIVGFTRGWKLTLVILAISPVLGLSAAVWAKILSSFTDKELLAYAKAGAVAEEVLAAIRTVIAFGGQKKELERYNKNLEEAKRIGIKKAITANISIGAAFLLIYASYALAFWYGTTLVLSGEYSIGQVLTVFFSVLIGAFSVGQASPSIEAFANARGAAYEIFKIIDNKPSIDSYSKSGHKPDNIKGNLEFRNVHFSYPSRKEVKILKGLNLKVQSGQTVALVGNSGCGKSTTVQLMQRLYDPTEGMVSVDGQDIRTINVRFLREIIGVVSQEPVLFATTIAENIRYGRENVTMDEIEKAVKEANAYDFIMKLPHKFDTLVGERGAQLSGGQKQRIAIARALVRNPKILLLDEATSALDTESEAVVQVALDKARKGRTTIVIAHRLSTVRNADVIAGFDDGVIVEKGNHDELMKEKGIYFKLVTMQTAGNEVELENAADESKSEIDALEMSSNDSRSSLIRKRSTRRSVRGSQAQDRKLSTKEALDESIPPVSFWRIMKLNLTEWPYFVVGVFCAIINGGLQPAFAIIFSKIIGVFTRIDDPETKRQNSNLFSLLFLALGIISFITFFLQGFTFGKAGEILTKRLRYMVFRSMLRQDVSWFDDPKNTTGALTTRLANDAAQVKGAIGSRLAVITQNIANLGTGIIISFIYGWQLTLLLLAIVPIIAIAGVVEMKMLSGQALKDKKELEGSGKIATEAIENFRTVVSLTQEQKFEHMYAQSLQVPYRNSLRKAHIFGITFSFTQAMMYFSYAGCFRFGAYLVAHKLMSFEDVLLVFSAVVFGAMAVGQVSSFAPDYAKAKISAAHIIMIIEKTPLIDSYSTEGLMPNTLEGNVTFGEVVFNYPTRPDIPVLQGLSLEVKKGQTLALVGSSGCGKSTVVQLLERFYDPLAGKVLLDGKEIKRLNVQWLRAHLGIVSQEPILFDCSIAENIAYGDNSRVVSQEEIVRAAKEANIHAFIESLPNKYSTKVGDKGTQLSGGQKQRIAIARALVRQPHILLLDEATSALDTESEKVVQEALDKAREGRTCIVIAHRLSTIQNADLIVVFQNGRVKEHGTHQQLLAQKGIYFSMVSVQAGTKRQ
Protocol: According to a previously reported procedure, MDCK-MDR1 cell lines (50,000 cells per well) were seeded into black CulturePlate 96/wells plate with […] medium and grown overnight to confluence. Aliquots (100 µL) of tested compounds in culture medium, at scalar concentrations ranging from 0,1 to 100 µM, were added to each well. The plate was incubated at 37 °C for 30 min, Calcein-AM in phosphate buffered saline (PBS, […]) was added to each well at a final concentration of […], and the plate was incubated for 30 min. The plate was washed 3 times with […] ice cold PBS, Saline buffer ([…]) was added to each well and the plate was read by a PerkinElmer Victor3 spectrofluorimeter at excitation and emission wavelengths of 485 nm and 535 nm, respectively. Under these conditions, calcein cell accumulation in the absence and in the presence of tested compounds was evaluated, and a fluorescence basal level was estimated by untreated cells. In treated wells, the increase of fluorescence with respect to the basal level was measured, EC50 values were determined by fitting the fluorescence increase percentage versus log[dose] with GraphPad Prism Software 5,0 (GraphPad Software, Inc,: San Diego, CA).

[1] = test system: GRP78, ATF6, IRE1, PERK in MCF7 cells; assay: ER stress markers, qRT-PCR and immunoblotting; type: cell-based, human; conditions: MCF7, 2 h, 50 µM
Protocol: (§1) 1 μg total RNA was reverse-transcribed using the iScript Reverse Transcription Supermix kit (Bio-Rad Laboratories, Hercules, CA; #1,708,840), according to the manufacturer’s instruction. 25 ng cDNA were amplified with 10 μL IQ™ SYBR Green Supermix (Bio-Rad Laboratories, # 1708880B05). Primers were designed with the qPrimer Depot software (http://primerdepot.nci.nih.gov/). qRT-PCR was carried out with a CFX96™ Real-Time Detector System (Bio-Rad Laboratories). Cycling conditions were: 30 s at 95 °C, followed by 40 cycles of denaturation (15 s at 95 °C), annealing/extension (30 s at 60 °C). The same cDNA preparation was used to quantify the genes of interest and the housekeeping gene S14, used to normalize gene expression. The relative quantitation of each sample was carried out using the Gene Expression Quantitation software (Bio-Rad Laboratories). Results were expressed in arbitrary units. For each gene, the expression in untreated cells was assumed to be “1”.
(§2) Cells were rinsed with ice-cold lysis buffer (50 mM, Tris, 10 mM EDTA, 1% v/v Triton-X100), supplemented with the protease inhibitor cocktail set III (80 μM aprotinin, 5 mM bestatin, 1.5 mM leupeptin, 1 mM pepstatin; Sigma, # 535,140), 2 mM phenylmethylsulfonyl fluoride (Sigma: #P7626) and 1 mM Na3VO4, (Sigma; #S6508) then sonicated and centrifuged at 13,000 × g for 10 min at 4 °C. 20 μg protein extracts were subjected to SDS–PAGE and probed with the antibodies for: GRP78 (#ab21685), ATF6 (#ab122897), IRE-1 (#ab37073), PERK (#ab65142), actin (#ab1801) (all from Abcam, Cambridge, UK), followed by a peroxidase-conjugated secondary antibody (Bio-Rad Laboratories). The membranes were washed with Tris-buffered saline-Tween 0.1% v/v solution, and the proteins were detected by enhanced chemiluminescence (Bio-Rad Laboratories, #1,705,061). The densitometric analysis was performed using the ImageJ software (https://imagej.nih.gov/), calculating the ratio protein of interest/actin band density, putting actin band density as 1 relative unit in each condition. Densitometric analysis and whole blots are included as Supporting Information.

[2] = test system: GRP78, ATF6, IRE1, PERK in A549 cells; assay: ER stress markers, qRT-PCR and immunoblotting; type: cell-based, human; conditions: A549, 2 h, 50 µM
Protocol: as §1, §2

sigma-2 receptors = sigma-2 receptors (Homo sapiens, UniProt Q5BJF2); conditions: read-out: Sigma-2 Affinity Ki; cited from earlier work
Sequence of sigma-2 receptors (Q5BJF2 whole entry): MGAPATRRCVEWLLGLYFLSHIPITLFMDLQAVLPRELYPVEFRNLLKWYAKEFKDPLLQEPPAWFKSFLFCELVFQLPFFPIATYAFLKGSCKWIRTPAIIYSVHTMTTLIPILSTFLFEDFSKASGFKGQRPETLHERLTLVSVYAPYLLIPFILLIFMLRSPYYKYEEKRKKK

A549 cells = assay: Mitochondrial ROS, MitoSOX staining; type: cell-based, human; conditions: A549, 2 h, 50 µM
Protocol: (§3) Intramitochondrial reactive oxygen species (ROS) were measured using the MitoSOX fluorescent probe (Invitrogen ThermoScientific, # M36008), according to the manufacturer’s instructions. For total ROS, cells were incubated with 5 µmol/L of 5-(and-6)-chlorometyl-20,70-dichlorodihydro-fluorescein diacetate-acetoxymethyl ester (DCFDA-AM, Sigma, #21,884), as described by Riganti et al. 2015 [21]. The results are expressed as nmoles/mg mitochondrial or cellular proteins, respectively.

MCF7 cells = assay: Mitochondrial ROS, MitoSOX staining; type: cell-based, human; conditions: MCF7, 2 h, 50 µM
Protocol: as §3

For `CN(C)C(=S)N/N=C1\C(=O)N(CCCCN2CCC3(CC2)OCc2ccccc23)c2ccccc21` [FA4, (Z)-2-(1-(4-(3H-spiro[isobenzofuran-1,4′-piperidine]-1′-yl)butyl)-2-oxoindolin-3-ylidene)-N,N-dimethylhydrazinecarbothioamide], which EC50 (MCF7 and A549 cell lines) is on record?
Its EC50 is 1530 to 1840 nM.

What about the EC50 (P-gp) of the same compound?
The EC50 was 3.8 µM.

What about the “Expression of ER stress markers GRP78, ATF6, IRE1, PERK” value [1] of the same compound?
The value was “increased”.

And the “Expression of ER stress markers GRP78, ATF6, IRE1, PERK” value [2]?
Its value is “increased”.

What about the Ki (sigma-2 receptors) of the same compound?
The Ki was 15.8 nM.

What about the “Mitochondrial ROS (MitoSOX)” value (A549 cells) of the same compound?
Its value is “increased”.

What about the “Mitochondrial ROS (MitoSOX)” value (MCF7 cells) of the same compound?
The value was “increased”.
